# Laboratory results: ChEMBL document CHEMBL5512674, “Novel Acyl Thiourea-Based Hydrophobic Tagging Degraders Exert Potent Anti-Influenza Activity through Two Distinct Endonuclease Polymerase Acidic-Targeted Degradation Pathways” (J Med Chem, 2024)
# Calls of active or inactive are those of the source. No cut-off for these calls is given here.
# Assays:
# [1] = system: Influenza A virus; experiment: Anti-influenza activity against Influenza A virus A/WSN/33(H1N1) infected in HEK293T cells assessed as reduction in virus-induced cytopathic effect incubated for 48 hrs by CCK-8 assay; type: functional, organism-based; conditions: HEK-293T
# [2] = target: T1, von Hippel-Lindau disease tumor suppressor/Polymerase basic protein 2 (Influenza A virus (strain A/Puerto Rico/8/1934 H1N1)) (UniProt P40337+P03428); experiment: PROTAC activity at Influenza A virus A/WSN/33(H1N1) flag tagged Polymerase basic protein 2/VHL (unknown origin) expressed in HEK293T cells assessed as degradation of PB2 expression at 1 ug/ml incubated for 24 hrs by Western blotting analysis; type: cell-based; conditions: dose 1.0 µg/ml
# [3] = target: T2, von Hippel-Lindau disease tumor suppressor/Polymerase basic protein 1 (Influenza A virus (strain A/Puerto Rico/8/1934 H1N1)) (UniProt P03431+P40337); experiment: PROTAC activity at Influenza A virus A/WSN/33(H1N1) flag tagged Polymerase basic protein 1/VHL (unknown origin) expressed in HEK293T cells assessed as degradation of PB1 expression at 10 ug/ml incubated for 24 hrs by Western blotting analysis; type: cell-based; conditions: dose 10.0 µg/ml
# [4] = Selectivity index, ratio of CC50 for cytotoxicity against human HEK293T cells to EC50 for anti-influenza activity against Influenza A virus A/WSN/33(H1N1) infected in HEK293T cells assessed as reduction in virus-induced cytopathic effect; type: toxicity, cell-based; conditions: read-out: Ratio CC50/EC50
# [5] = Cytotoxicity against human HEK293T cells assessed as reduction in cell viability incubated for 48 hrs by CCK-8 assay; type: toxicity, cell-based, HEK-293T
# [6] = target: T2, von Hippel-Lindau disease tumor suppressor/Polymerase basic protein 1 (Influenza A virus (strain A/Puerto Rico/8/1934 H1N1)); experiment: PROTAC activity at Influenza A virus A/WSN/33(H1N1) flag tagged Polymerase basic protein 1/VHL (unknown origin) expressed in HEK293T cells assessed as degradation of PB1 expression at 1 ug/ml incubated for 24 hrs by Western blotting analysis; type: cell-based; conditions: dose 1.0 µg/ml
# [7] = target: T1, von Hippel-Lindau disease tumor suppressor/Polymerase basic protein 2 (Influenza A virus (strain A/Puerto Rico/8/1934 H1N1)); experiment: PROTAC activity at Influenza A virus A/WSN/33(H1N1) flag tagged Polymerase basic protein 2/VHL (unknown origin) expressed in HEK293T cells assessed as degradation of PB2 expression at 10 ug/ml incubated for 24 hrs by Western blotting analysis; type: cell-based; conditions: dose 10.0 µg/ml
# [8] = Hepatic extraction ratio in human liver microsomes preincubated for 5 mins followed by NADPH addition and measured for 45 mins by LC-MS analysis; type: ADME, Microsome; conditions: time 50 min, read-out: ERH
# [9] = Hepatic extraction ratio in mouse liver microsomes preincubated for 5 mins followed by NADPH addition and measured for 45 mins by LC-MS analysis; type: ADME, Microsome; conditions: time 50 min, read-out: ERH
# [10] = Hepatic extraction ratio in dog liver microsomes preincubated for 5 mins followed by NADPH addition and measured for 45 mins by LC-MS analysis; type: ADME, Canis lupus familiaris, Microsome; conditions: time 50 min, read-out: ERH
# [11] = target: T3, von Hippel-Lindau disease tumor suppressor/Polymerase acidic protein (Influenza A virus (A/Puerto Rico/8/1934(H1N1))) (UniProt P03433+P40337); experiment: PROTAC activity at Influenza A virus A/WSN/33(H1N1) flag tagged Polymerase acidic protein/VHL (unknown origin) expressed in HEK293T cells assessed as degradation of PA expression at 5 uM incubated for 24 hrs by Western blotting analysis; type: cell-based
# [12] = target: T3, von Hippel-Lindau disease tumor suppressor/Polymerase acidic protein (Influenza A virus (A/Puerto Rico/8/1934(H1N1))); experiment: PROTAC activity at Influenza A virus A/WSN/33(H1N1) flag tagged Polymerase acidic protein/VHL (unknown origin) expressed in HEK293T cells assessed as degradation of PA expression at 10 uM incubated for 24 hrs by Western blotting analysis; type: cell-based
# [13] = system: Influenza B virus; experiment: Anti-influenza activity against Influenza B virus Victoria/2/87 infected in HEK293T cells assessed as reduction in virus-induced cytopathic effect incubated for 48 hrs by CCK-8 assay; type: functional, organism-based; conditions: Victoria/2/87, HEK-293T
# [14] = system: Influenza B virus; experiment: Anti-influenza activity against Influenza B virus Yamagata/16/88 infected in HEK293T cells assessed as reduction in virus-induced cytopathic effect incubated for 48 hrs by CCK-8 assay; type: functional, organism-based; conditions: Yamagata/16/88, HEK-293T
# [15] = system: Influenza A virus; experiment: Anti-influenza activity against Influenza A virus H3N2 infected in HEK293T cells assessed as reduction in virus-induced cytopathic effect incubated for 48 hrs by CCK-8 assay; type: functional, organism-based; conditions: H3N2, HEK-293T
# [16] = Stability in human plasma assessed as compound remaining measured after 120 mins by LC-MS/MS analysis; type: ADME, cell-free; conditions: 2 h, BLD = below limit of detection
# [17] = Stability in human plasma assessed as compound remaining measured after 30 mins by LC-MS/MS analysis; type: ADME, cell-free; conditions: 0.5 h, BLD = below limit of detection
# [18] = Stability in human plasma assessed as compound remaining measured after 5 mins by LC-MS/MS analysis; type: ADME, cell-free; conditions: read-out: Stability
# [19] = Stability in human plasma assessed as compound remaining by LC-MS/MS analysis; type: ADME, cell-free
# [20] = Half life in human plasma by LC-MS/MS analysis; type: ADME, cell-free
# [21] = Stability in human plasma assessed as compound remaining measured after 15 mins by LC-MS/MS analysis; type: ADME, cell-free; conditions: 0.25 h, BLD = below limit of detection
# [22] = Stability in human plasma assessed as compound remaining measured after 60 mins by LC-MS/MS analysis; type: ADME, cell-free; conditions: read-out: Stability
# T2 sequence (P03431 whole entry, looked up): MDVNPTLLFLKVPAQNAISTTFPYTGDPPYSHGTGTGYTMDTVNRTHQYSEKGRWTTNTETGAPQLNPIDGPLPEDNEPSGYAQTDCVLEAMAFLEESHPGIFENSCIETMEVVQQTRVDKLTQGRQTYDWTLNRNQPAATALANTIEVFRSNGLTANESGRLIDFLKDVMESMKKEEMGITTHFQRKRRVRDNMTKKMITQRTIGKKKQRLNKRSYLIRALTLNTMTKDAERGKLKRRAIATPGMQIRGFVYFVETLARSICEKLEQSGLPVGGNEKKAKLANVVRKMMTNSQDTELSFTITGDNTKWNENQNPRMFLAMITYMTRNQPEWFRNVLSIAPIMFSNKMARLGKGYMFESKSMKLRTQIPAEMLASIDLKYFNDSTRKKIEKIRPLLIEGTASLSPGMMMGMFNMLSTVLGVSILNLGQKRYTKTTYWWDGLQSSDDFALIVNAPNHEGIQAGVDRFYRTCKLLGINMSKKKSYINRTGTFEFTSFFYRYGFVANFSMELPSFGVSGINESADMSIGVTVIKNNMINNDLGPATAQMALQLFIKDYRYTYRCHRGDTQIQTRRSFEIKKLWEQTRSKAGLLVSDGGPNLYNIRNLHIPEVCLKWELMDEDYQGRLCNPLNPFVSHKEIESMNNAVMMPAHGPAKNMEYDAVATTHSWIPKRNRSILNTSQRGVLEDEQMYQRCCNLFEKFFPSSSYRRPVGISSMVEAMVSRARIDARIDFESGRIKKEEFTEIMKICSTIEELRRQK
# T2 sequence (P40337 whole entry, looked up): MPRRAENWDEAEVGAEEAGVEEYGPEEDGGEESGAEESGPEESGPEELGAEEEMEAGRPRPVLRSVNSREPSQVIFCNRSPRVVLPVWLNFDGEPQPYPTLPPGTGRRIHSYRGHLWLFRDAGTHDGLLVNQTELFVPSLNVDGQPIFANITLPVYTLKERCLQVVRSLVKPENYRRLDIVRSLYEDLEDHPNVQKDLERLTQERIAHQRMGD
# T1 sequence (P03428 whole entry, looked up): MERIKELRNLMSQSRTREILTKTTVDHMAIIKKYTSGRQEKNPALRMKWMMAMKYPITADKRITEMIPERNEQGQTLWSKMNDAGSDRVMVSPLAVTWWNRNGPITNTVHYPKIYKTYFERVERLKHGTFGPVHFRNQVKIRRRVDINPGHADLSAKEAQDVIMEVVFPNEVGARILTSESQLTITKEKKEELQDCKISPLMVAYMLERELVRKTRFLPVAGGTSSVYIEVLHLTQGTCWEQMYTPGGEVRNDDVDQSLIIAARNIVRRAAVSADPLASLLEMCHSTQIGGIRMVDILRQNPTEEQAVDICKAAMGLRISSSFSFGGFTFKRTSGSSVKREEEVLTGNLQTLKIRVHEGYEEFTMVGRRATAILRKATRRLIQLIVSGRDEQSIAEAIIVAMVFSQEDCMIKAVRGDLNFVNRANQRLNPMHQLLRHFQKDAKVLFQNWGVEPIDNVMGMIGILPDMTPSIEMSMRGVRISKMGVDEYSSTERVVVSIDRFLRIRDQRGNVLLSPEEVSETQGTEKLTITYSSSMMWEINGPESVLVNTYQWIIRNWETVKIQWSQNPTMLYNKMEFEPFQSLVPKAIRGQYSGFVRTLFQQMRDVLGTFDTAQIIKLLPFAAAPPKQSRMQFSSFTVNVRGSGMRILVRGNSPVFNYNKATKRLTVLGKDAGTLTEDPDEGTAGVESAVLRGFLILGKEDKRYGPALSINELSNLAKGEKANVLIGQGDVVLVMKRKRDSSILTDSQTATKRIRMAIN
# T1 sequence (P40337 whole entry, looked up): as the sequence (P40337 whole entry, looked up) above
SMILES,EC50 [1] [nM],Activity [2],Activity [3],selectivity ratio [4],CC50 at 48 h [5] [nM],Activity [6],Activity [7],also measured
CC(C)(C)c1ccc(C(=O)NC(=S)Nc2ccc(NC(=O)CCCCCCCN)cc2)cc1,> 43000,,,,,,,
CC(C)(C)OC(=O)/N=C(\NCCC[C@H](NC(=O)OC(C)(C)C)C(=O)NCCCCCCCC(=O)Nc1ccc(NC(=S)NC(=O)c2ccc(C(C)(C)C)cc2)cc1)NC(=O)OC(C)(C)C,374,inactive,inactive,> 267,> 100000,inactive,inactive,
O=C(c1ccc(F)cc1)C1CCN(CCn2c(=O)[nH]c3ccccc3c2=O)CC1 [KETANSERIN],,,,,,,,hepatic extraction ratio at 0.75 h [8]: 0.693; hepatic extraction ratio at 0.75 h [9]: 0.765; hepatic extraction ratio at 0.75 h [10]: 0.697
CCCCCCCCNC(=O)[C@H](CCCCNC(=O)OC(C)(C)C)NC(=O)OC(C)(C)C,,,,,,,,Activity [11]: inactive
CC(C)(C)OC(=O)N[C@@H](Cc1c[nH]c2ccccc12)C(=O)NCCCCCC(=O)Nc1ccc(NC(=S)NC(=O)c2ccc(C(C)(C)C)cc2)cc1,344,inactive,inactive,> 291,> 100000,inactive,inactive,
CC(C)(C)OC(=O)N[C@@H](Cc1c[nH]c2ccccc12)C(=O)NCCCCCCCC(=O)Nc1ccc(NC(=S)NC(=O)c2ccc(C(C)(C)C)cc2)cc1,43,inactive,inactive,> 2330,> 100000,inactive,inactive,
CC(C)(C)c1ccc(C(=O)NC(=S)Nc2ccc(NC(=O)CCCCCCCCN)cc2)cc1,365,,,17.7,6470,,,
CC(C)(C)OC(=O)NCCCC[C@H](NC(=O)OC(C)(C)C)C(=O)NCCCCCCCCCCC(=O)Nc1ccc(NC(=S)NC(=O)c2ccc(C(C)(C)C)cc2)cc1,186,inactive,inactive,400,74500,inactive,inactive,Activity [12]: Active
CC(C)(C)OC(=O)NCCCC[C@H](NC(=O)OC(C)(C)C)C(=O)NCCCCCCCCCCCC(=O)Nc1ccc(NC(=S)NC(=O)c2ccc(C(C)(C)C)cc2)cc1,534,inactive,inactive,> 187,> 100000,inactive,inactive,
CC(C)(C)OC(=O)NCCCC[C@H](NC(=O)OC(C)(C)C)C(=O)NCCCCCCCCCC(=O)Nc1ccc(NC(=S)NC(=O)c2ccc(C(C)(C)C)cc2)cc1,45,inactive,inactive,> 2220,> 100000,inactive,inactive,Activity [12]: Active
CC(C)(C)OC(=O)N[C@@H](Cc1c[nH]c2ccccc12)C(=O)NCCCCCCC(=O)Nc1ccc(NC(=S)NC(=O)c2ccc(C(C)(C)C)cc2)cc1,169,inactive,inactive,> 592,> 100000,inactive,inactive,
CC(C)(C)c1ccc(C(=O)NC(=S)Nc2ccc(NC(=O)CCCCCCCCCN)cc2)cc1,298,,,21.1,< 6290,,,
CC(C)(C)OC(=O)NCCCC[C@H](NC(=O)OC(C)(C)C)C(=O)NCCCCCCC(=O)Nc1ccc(NC(=S)NC(=O)c2ccc(C(C)(C)C)cc2)cc1,75,inactive,inactive,> 1330,> 100000,inactive,inactive,Activity [12]: Active
CC(C)(C)OC(=O)N[C@@H](Cc1c[nH]c2ccccc12)C(=O)Nc1ccc(NC(=S)NC(=O)c2ccc(C(C)(C)C)cc2)cc1,407,inactive,inactive,> 246,> 100000,inactive,inactive,
CC(C)(C)c1ccc(C(=O)NC(=S)Nc2ccc(NC(=O)CCCCCCCNC(=O)[C@@H](N)CC(N)=O)cc2)cc1,,,,,,,,Activity [11]: inactive
CC(C)(C)OC(=O)N[C@@H](Cc1c[nH]c2ccccc12)C(=O)NCCCCCCCCCCC(=O)Nc1ccc(NC(=S)NC(=O)c2ccc(C(C)(C)C)cc2)cc1,383,inactive,inactive,109,41800,inactive,inactive,
CC(C)(C)c1ccc(C(=O)NC(=S)Nc2ccc(NC(=O)CCCCCCN)cc2)cc1,> 44000,,,,,,,
CC(C)(C)OC(=O)N[C@@H](Cc1c[nH]c2ccccc12)C(=O)NCCCCCCCCCCCC(=O)Nc1ccc(NC(=S)NC(=O)c2ccc(C(C)(C)C)cc2)cc1,974,inactive,inactive,> 103,> 100000,inactive,inactive,
NC(=O)c1nc(F)cnc1O [FAVIPIRAVIR],8290,,,> 18.1,> 100000,,,EC50 [13]: > 10000 nM; EC50 [14]: > 10000 nM; EC50 [15]: > 10000 nM
CC(C)(C)c1ccc(C(=O)NC(=S)Nc2ccc(NC(=O)CCCCCCCNC(=O)[C@@H](N)Cc3cnc[nH]3)cc2)cc1,,,,,,,,Activity [11]: inactive
CC(C)(C)OC(=O)N[C@@H](Cc1c[nH]c2ccccc12)C(=O)NCCCCCCCCCC(=O)Nc1ccc(NC(=S)NC(=O)c2ccc(C(C)(C)C)cc2)cc1,64,inactive,inactive,> 1560,> 100000,inactive,inactive,Activity [12]: Active
CCN(CC)CCOC(=O)c1ccc(N)cc1 [PROCAINE],,,,,,,,Stability [16]: Bld; Stability [17]: Bld; remaining at 5 min [18]: 4.49%; Stability [19]: 100%; half-life [20]: 1.12 min; Stability [21]: Bld; remaining at 1 h [22]: 0.1%
CC(C)(C)OC(=O)N[C@@H](Cc1c[nH]c2ccccc12)C(=O)NCCCC(=O)Nc1ccc(NC(=S)NC(=O)c2ccc(C(C)(C)C)cc2)cc1,572,inactive,inactive,167,95400,inactive,inactive,
CC(C)(C)OC(=O)NCCCC[C@H](NC(=O)OC(C)(C)C)C(=O)NCCOCCOCC(=O)Nc1ccc(NC(=S)NC(=O)c2ccc(C(C)(C)C)cc2)cc1,> 25000,,,,,,,
